Assay results taken from patent US10072011B2, “Substituted bridged urea analogs as sirtuin modulators” (GlaxoSmithKline Intellectual Property (No.2) Limited, priority 2014, dated 2018).
Where two headings read alike, the source gives them in different places.

Biological target: T1, SIRT1 (Homo sapiens, UniProt Q96EB6)
T1 sequence (Q96EB6 1-747): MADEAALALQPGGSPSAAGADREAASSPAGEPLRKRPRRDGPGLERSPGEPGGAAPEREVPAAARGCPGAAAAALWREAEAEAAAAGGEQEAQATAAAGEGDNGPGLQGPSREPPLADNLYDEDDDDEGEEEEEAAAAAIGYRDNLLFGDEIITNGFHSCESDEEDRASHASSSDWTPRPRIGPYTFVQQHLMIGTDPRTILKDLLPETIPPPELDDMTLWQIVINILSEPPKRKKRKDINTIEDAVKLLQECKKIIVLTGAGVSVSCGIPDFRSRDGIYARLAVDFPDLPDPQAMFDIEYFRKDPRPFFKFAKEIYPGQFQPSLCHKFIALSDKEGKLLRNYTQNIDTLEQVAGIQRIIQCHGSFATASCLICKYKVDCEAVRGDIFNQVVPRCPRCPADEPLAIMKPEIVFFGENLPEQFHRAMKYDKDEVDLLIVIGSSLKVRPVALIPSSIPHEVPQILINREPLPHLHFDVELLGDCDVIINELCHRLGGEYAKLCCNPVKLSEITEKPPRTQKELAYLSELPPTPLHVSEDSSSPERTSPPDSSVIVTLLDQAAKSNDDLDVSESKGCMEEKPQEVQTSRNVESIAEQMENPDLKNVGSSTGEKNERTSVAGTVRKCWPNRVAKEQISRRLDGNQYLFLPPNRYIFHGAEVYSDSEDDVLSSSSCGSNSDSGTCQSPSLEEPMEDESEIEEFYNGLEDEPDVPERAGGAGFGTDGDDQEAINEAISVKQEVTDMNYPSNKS
Test: Trp mass spectrometry assay of SIRT1 activation (Ac-R-H-K-K(Ac)-W-NH2 peptide)
Assay type: biochemical
Conditions: for Emax: 25 min, read-out: TRP MAX RESP (percent maximum fold activation)
Outline: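 N-terminal His-tagged human SIRT1, expressed in BL21(DE3) and purified, was incubated 25 min with an acetylated Trp peptide and NAD plus test compound at varying concentrations, then quenched with formic acid. OAADPR or deacetylated peptide was quantified by mass spectrometry versus compound-free control; EC1.5 is the concentration giving 50% activity increase, with percent maximum activation.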

[1] = Trp peptide 0.5 μM, 120 μM βNAD+, 10 nM SIRT1, 25 min at 25° C., relative to control (100%)
[2] = Trp peptide 0.5 μM, 120 μM βNAD+, 10 nM SIRT1, 25 min at 25° C.

| Emax [1] [%] | TRP Activity (EC1.5, concentration of test compound that results in 150% activation of SIRT1) [2] | TRP MAX RESP (percent maximum fold activation) [1] | Structure (SMILES) | Emax [%] |
| --- | --- | --- | --- | --- |
| < 150 | A (EC1.5<1 μM) | – | CC(=O)Nc1ccnc(NC(=O)N2c3nc(C(=O)N[C@H](C)C(F)(F)F)ccc3N3CC[C@H]2C3)c1 [Example 320, (4S)—N5-(4-acetamidopyridin-2-yl)-N7-((R)-1,1,1-trifluoropropan-2-yl)-3,4-dihydro-1,4-methanopyrido[2,3-b][1,4]diazepine-5,7(2H)-dicarboxamide] | – |
| > 150 | A (EC1.5<1 μM) | – | C[C@@H](NC(=O)c1ccc2c(n1)N(C(=O)Nc1cccn(C)c1=O)[C@H]1CCN2C1)C(F)(F)F [Example 98, (4S)—N5-(1-methyl-2-oxo-1,2-dihydropyridin-3-yl)-N7-((R)-1,1,1-trifluoropropan-2-yl)-3,4-dihydro-1,4-methanopyrido[2,3-b][1,4]diazepine-5,7(2H)-dicarboxamide] | – |
| < 150 | C (EC1.5>25 μM) | – | C[C@@H](NC(=O)c1ccc2c(n1)N(C(=O)Nc1cc(C(=O)N[C@H]3CCOC3)ccn1)[C@H]1CCN2C1)C(F)(F)F [Example 264, (4S)—N5-(4-(((S)-tetrahydrofuran-3-yl)carbamoyl)pyridin-2-yl)-N7-((R)-1,1,1-trifluoropropan-2-yl)-3,4-dihydro-1,4-methanopyrido[2,3-b][1,4]diazepine-5,7(2H)-dicarboxamide] | – |
| > 150 | A (EC1.5<1 μM) | – | C[C@@H](NC(=O)c1nc2c(cc1Cl)N1CC[C@@H](C1)N2C(=O)Nc1cc(-c2cnco2)ccn1)C(F)(F)F [Example 282, (4S)-8-chloro-N5-(4-(oxazol-5-yl)pyridin-2-yl)-N7-((R)-1,1,1-trifluoropropan-2-yl)-3,4-dihydro-1,4-methanopyrido[2,3-b][1,4]diazepine-5,7(2H)-dicarboxamide] | – |
| > 150 | A (EC1.5<1 μM) | – | C#CCNC(=O)c1ccc2c(n1)N(C(=O)Nc1ccccn1)[C@H]1CCN2C1 [Example 99, (4S)—N7-(prop-2-yn-1-yl)-N5-(pyridin-2-yl)-3,4-dihydro-1,4-methanopyrido[2,3-b][1,4]diazepine-5,7(2H)-dicarboxamide] | – |
| > 150 | B (EC1.5 1-25 μM) | – | COC(=O)CNC(=O)c1ccc2c(n1)N(C(=O)Nc1ccccn1)[C@H]1CCN2C1 [Example 12] | – |
| < 150 | A (EC1.5<1 μM) | – | C[C@@H](NC(=O)c1ccc2c(n1)N(C(=O)Nc1cc(-c3nn[nH]n3)ccn1)[C@H]1CCN2C1)C(F)(F)F [Example 308, (4S)—N5-(4-(2H-tetrazol-5-yl)pyridin-2-yl)-N7-((R)-1,1,1-trifluoropropan-2-yl)-3,4-dihydro-1,4-methanopyrido[2,3-b][1,4]diazepine-5,7(2H)-dicarboxamide] | – |
| > 150 | A (EC1.5<1 μM) | – | C#C[C@H](C)NC(=O)c1ccc2c(n1)N(C(=O)Nc1ccccn1)[C@H]1CCN2C1 [Example 142, (4S)—N7-((S)-but-3-yn-2-yl)-N5-(pyridin-2-yl)-3,4-dihydro-1,4-methanopyrido[2,3-b][1,4]diazepine-5,7(2H)-dicarboxamide] | – |
| > 150 | A (EC1.5<1 μM) | – | C[C@@H](NC(=O)c1ccc2c(n1)N(C(=O)Nc1cnc(OC[C@H](O)CO)cn1)[C@H]1CCN2C1)C(F)(F)F [Example 194, (4S)—N5-(5-((R)-2,3-dihydroxypropoxy)pyrazin-2-yl)-N7-((R)-1,1,1-trifluoropropan-2-yl)-3,4-dihydro-1,4-methanopyrido[2,3-b][1,4]diazepine-5,7(2H)-dicarboxamide] | – |
| – | B (EC1.5 1-25 μM) | A (Fold activation≥150%) | O=C(NC1CC1(F)F)c1ccc2c(n1)N(C(=O)Nc1cc(OCCO)ccn1)[C@H]1CCN2C1 (single isomer, unassigned) [Example 263] | – |
| < 150 | A (EC1.5<1 μM) | – | Cc1cc(C(=O)NCC(F)(F)F)nc2c1N1CC[C@@H](C1)N2C(=O)Nc1cc(OC[C@H](O)CO)ccn1 [Example 294, (4S)—N5-(4-((R)-2,3-dihydroxypropoxy)pyridin-2-yl)-9-methyl-N7-(2,2,2-trifluoroethyl)-3,4-dihydro-1,4-methanopyrido[2,3-b][1,4]diazepine-5,7(2H)-dicarboxamide] | – |
| > 150 | B (EC1.5 1-25 μM) | – | C[C@@H](O)CNC(=O)c1ccc2c(n1)N(C(=O)Nc1ccccn1)[C@H]1CCN2C1 [Example 203, (4S)—N7-((R)-2-hydroxypropyl)-N5-(pyridin-2-yl)-3,4-dihydro-1,4-methanopyrido[2,3-b][1,4]diazepine-5,7(2H)-dicarboxamide] | – |
| > 150 | A (EC1.5<1 μM) | – | Cc1ccc(NC(=O)N2c3nc(C(=O)N[C@H](C)C(F)(F)F)ccc3N3CC[C@H]2C3)nc1 [Example 56, (4S)—N5-(5-methylpyridin-2-yl)-N7-((R)-1,1,1-trifluoropropan-2-yl)-3,4-dihydro-1,4-methanopyrido[2,3-b][1,4]diazepine-5,7(2H)-dicarboxamide] | – |
| > 150 | B (EC1.5 1-25 μM) | – | O=C(NC1CCOC1)c1ccc2c(n1)N(C(=O)Nc1ccccn1)[C@H]1CCN2C1 (stereo partly drawn) [Example 6, (4S)—N-5-(pyridin-2-yl)-N-7-(tetrahydrofuran-3-yl)-3,4-dihydro-1,4-methano pyrido [2,3-b] [1, 4] diazepine-5, 7(2H)-dicarboxamide] | – |
| > 150 | A (EC1.5<1 μM) | – | C[C@@H](NC(=O)c1ccc2c(n1)N(C(=O)Nc1ccc(OC[C@H](O)CO)nn1)[C@H]1CCN2C1)C(F)(F)F [Example 193, (4S)—N5-(6-((R)-2,3-dihydroxypropoxy)pyridazin-3-yl)-N7-((R)-1,1,1-trifluoropropan-2-yl)-3,4-dihydro-1,4-methanopyrido[2,3-b][1,4]diazepine-5,7(2H)-dicarboxamide] | – |
| > 150 | B (EC1.5 1-25 μM) | – | CS(=O)(=O)c1ccc(NC(=O)N2c3nc(C(=O)NCC(F)(F)F)ccc3N3CC[C@H]2C3)nc1 [Example 146, (4S)—N5-(5-(methylsulfonyl)pyridin-2-yl)-N7-(2,2,2-trifluoroethyl)-3,4-dihydro-1,4-methanopyrido[2,3-b][1,4]diazepine-5,7(2H)-dicarboxamide] | – |
| – | A (EC1.5<1 μM) | – | CC(C#N)NC(=O)c1ccc2c(n1)N(C(=O)Nc1ccccn1)[C@H]1CCN2C1 (single isomer, unassigned) [Example 103] | – |
| > 150 | A (EC1.5<1 μM) | – | Cc1ccc2c(NC(=O)N3c4nc(C(=O)NCC(F)(F)F)ccc4N4CC[C@H]3C4)n[nH]c2n1 [Example 64, (4S)—N5-(6-methyl-1H-pyrazolo[3,4-b]pyridin-3-yl)-N7-(2,2,2-trifluoroethyl)-3,4-dihydro-1,4-methanopyrido[2,3-b][1,4]diazepine-5,7(2H)-dicarboxamide] | – |
| > 150 | A (EC1.5<1 μM) | – | O=C(NC(CO)C1CC1)c1ccc2c(n1)N(C(=O)Nc1ccccn1)[C@H]1CCN2C1 (single isomer, unassigned) [Example 58] | – |
| > 150 | A (EC1.5<1 μM) | – | O=C(N[C@H](CO)C(F)(F)F)c1ccc2c(n1)N(C(=O)Nc1ccccn1)[C@H]1CCN2C1 [Example 16, (4S)—N5-(pyridin-2-yl)-N7-((R)-1,1,1-trifluoro-3-hydroxypropan-2-yl)-3,4-dihydro-1,4-methanopyrido[2,3-b][1,4]diazepine-5,7(2H)-dicarboxamide] | – |

| Structure (SMILES) | Emax [1] [%] | TRP Activity (EC1.5, concentration of test compound that results in 150% activation of SIRT1) [2] | TRP MAX RESP (percent maximum fold activation) [1] | Emax [%] |
| --- | --- | --- | --- | --- |
| O=C(NCC(F)(F)F)c1ccc2c(n1)N(C(=O)Nc1cnccn1)[C@H]1CCN2C1 [Example 63, (4S)—N5-(pyrazin-2-yl)-N7-(2,2,2-trifluoroethyl)-3,4-dihydro-1,4-methanopyrido[2,3-b][1,4]diazepine-5,7(2H)-dicarboxamide] | – | A (EC1.5<1 μM) | – | > 150 |
